18 compounds from patent US20130096107A1, “USE OF AMINODIHYDROTHIAZINES FOR THE TREATMENT OR PREVENTION OF DIABETES” (Hoffmann-La Roche Inc., priority 2009, published 2013) can be followed below.

For this assay, the target named is T1, BACE2 (Homo sapiens, UniProt Q9Y5Z0).
T1 construct: BACE2 enzyme ectodomain (derived from plasmid “pET17b-T7-hu proBACE2”); T7 tag; made in house; a pET17b plasmid implies E. coli (own knowledge)
T1 sequence (Q9Y5Z0 63-473 limits assumed): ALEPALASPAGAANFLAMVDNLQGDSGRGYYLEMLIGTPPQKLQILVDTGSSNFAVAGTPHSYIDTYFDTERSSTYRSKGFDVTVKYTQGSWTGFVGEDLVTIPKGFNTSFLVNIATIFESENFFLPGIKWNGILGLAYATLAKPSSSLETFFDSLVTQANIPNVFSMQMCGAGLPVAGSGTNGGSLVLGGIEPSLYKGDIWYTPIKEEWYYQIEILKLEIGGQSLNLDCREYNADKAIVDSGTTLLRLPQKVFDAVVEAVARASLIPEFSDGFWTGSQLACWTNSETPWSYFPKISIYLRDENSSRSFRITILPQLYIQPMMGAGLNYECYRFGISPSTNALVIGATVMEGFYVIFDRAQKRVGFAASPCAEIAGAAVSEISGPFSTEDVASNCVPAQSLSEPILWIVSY
Description: Immunofluorescence Resonance Energy Transfer (FRET) assay for BACE2 inhibition. The format is biochemical. To be noted: pH 4.5; 5 μM TMEM27-based FRET peptide substrate. How it is done: BACE2 enzyme ectodomain (derived from plasmid “pET17b-T7-hu proBACE2”) was prepared as described in Ostermann et al., “Crystal Structure of Human BACE2 in Complex with a Hydroxyethylamine Transition-state Inhibitor”, Journal of Molecular Biology 2006, 355, 249-261. The pro-enzyme was stored at 4° C. at a concentration of 70 μg/ml.
The FRET assay was performed essentially as described in Grüninger-Leitch et al., Journal of Biological Chemistry (2002) 277(7) 4687-93 (“Substrate and inhibitor profile of BACE (beta-secretase) and comparison with other mammalian aspartic proteases”). In summary, a peptide is designed that is cleaved by the protease. The peptide is labelled with dabcyl at the N terminus and Lucifer Yellow at the C-terminus, such that for an intact peptide the Lucifer Yellow fluorescence is quenched by the dabcyl. When the peptide is cut by BACE2, the quenching is removed and a fluorescent signal is generated.
The assay was performed as described in Grueninger et al. 2002 at pH 4.5 using a substrate concentration of 5 μM. A FRET peptide based on the TMEM27 sequence was devised. dabcyl—[…]—LucY.
The assay readout is the initial rate of change of fluorescence intensity giving a relative measure of BACE2 activity. Small values correspond to high inhibition and larger values to low inhibition. […] IC50 values were determined using these assay values generated for a range of inhibitor concentrations and the curve fitting software XLfit (IDBS) using the Sigmoidal Dose-Response Model.
`CC[C@@]1(c2cc(NC(=O)c3ccc(Cl)cn3)ccc2F)CCSC(N)=N1` [Example 2, 5-Chloro-pyridine-2-carboxylic acid [3-((S)-2-amino-4-ethyl-5,6-dihydro-4H-[1,3]thiazin-4-yl)-4-fluoro-phenyl]-amide]: the IC50 amounted to 8 nM.
With `CC[C@@]1(c2cc(NC(=O)c3ccccn3)ccc2F)CCSC(N)=N1` [Example 3, Pyridine-2-carboxylic acid [3-((S)-2-amino-4-ethyl-5,6-dihydro-4H-[1,3]thiazin-4-yl)-4-fluoro-phenyl]-amide], 1030 nM corresponded to half-maximal inhibition (IC50).
With `CC[C@@]1(c2cc(NC(=O)c3ccc(Cl)cc3)ccc2F)CCSC(N)=N1` [Example 4, N-[3-((S)-2-Amino-4-ethyl-5,6-dihydro-4H-[1,3]thiazin-4-yl)-4-fluoro-phenyl]-4-chloro-benzamide] the figure was 2700 nM; with `CC[C@@]1(c2cc(NC(=O)c3cnc(Cl)cn3)ccc2F)CCSC(N)=N1` [Example 5, 5-Chloro-pyrazine-2-carboxylic acid [3-((S)-2-amino-4-ethyl-5,6-dihydro-4H-[1,3]thiazin-4-yl)-4-fluoro-phenyl]-amide], 1000 nM.
With `CC[C@@]1(c2cc(NC(=O)c3ncc(Cl)cn3)ccc2F)CCSC(N)=N1` [Example 6, 5-Chloro-pyrimidine-2-carboxylic acid [3-((S)-2-amino-4-ethyl-5,6-dihydro-4H-[1,3]thiazin-4-yl)-4-fluoro-phenyl]-amide] the figure was 440 nM.
In the case of `CC[C@@]1(c2cc(NC(=O)c3ncccc3C(F)(F)F)ccc2F)CCSC(N)=N1` [Example 7, 3-Trifluoromethyl-pyridine-2-carboxylic acid [3-((S)-2-amino-4-ethyl-5,6-dihydro-4H-[1,3]thiazin-4-yl)-4-fluoro-phenyl]-amide], half-maximal inhibition (IC50) required 5460 nM.
For `CC[C@@]1(c2cc(NC(=O)c3ncccc3-c3ccccc3)ccc2F)CCSC(N)=N1` [Example 8, 3-Phenyl-pyridine-2-carboxylic acid [3-((S)-2-amino-4-ethyl-5,6-dihydro-4H-[1,3]thiazin-4-yl)-4-fluoro-phenyl]-amide], the half-inhibitory concentration (IC50) stood at 4930 nM.
With `CC[C@@]1(c2cc(NC(=O)c3cc(Cl)ccn3)ccc2F)CCSC(N)=N1` [Example 9, 4-Chloro-pyridine-2-carboxylic acid [3-((S)-2-amino-4-ethyl-5,6-dihydro-4H-[1,3]thiazin-4-yl)-4-fluoro-phenyl]-amide] the figure was 41000 nM; with `CC[C@@]1(c2cc(NC(=O)c3cccc(C)n3)ccc2F)CCSC(N)=N1` [Example 10, 6-Methyl-pyridine-2-carboxylic acid [3-((S)-2-amino-4-ethyl-5,6-dihydro-4H-[1,3]thiazin-4-yl)-4-fluoro-phenyl]-amide], 50900 nM; with `CC[C@@]1(c2cc(NC(=O)c3nc(Cl)ccc3Cl)ccc2F)CCSC(N)=N1` [Example 11, 3,6-Dichloro-pyridine-2-carboxylic acid [3-((S)-2-amino-4-ethyl-5,6-dihydro-4H-[1,3]thiazin-4-yl)-4-fluoro-phenyl]-amide], 23000 nM.
Turning to `CC[C@@]1(c2cc(NC(=O)c3nc(Cl)ccc3C(F)(F)F)ccc2F)CCSC(N)=N1` [Example 12, 6-Chloro-3-trifluoromethyl-pyridine-2-carboxylic acid [3-((S)-2-amino-4-ethyl-5,6-dihydro-4H-[1,3]thiazin-4-yl)-4-fluoro-phenyl]-amide], the IC50 amounted to 33500 nM.
With `CC[C@@]1(c2cc(NC(=O)c3cc4ccccc4cn3)ccc2F)CCSC(N)=N1` [Example 13, Isoquinoline-3-carboxylic acid [3-((S)-2-amino-4-ethyl-5,6-dihydro-4H-[1,3]thiazin-4-yl)-4-fluoro-phenyl]-amide] the figure was 9100 nM; with `CC[C@@]1(c2cc(NC(=O)c3nccc4ccsc34)ccc2F)CCSC(N)=N1` [Example 14, Thieno[2,3-c]pyridine-7-carboxylic acid [3-((S)-2-amino-4-ethyl-5,6-dihydro-4H-[1,3]thiazin-4-yl)-4-fluoro-phenyl]-amide], 3080 nM.
With `CC[C@@]1(c2cc(NC(=O)c3cc4ccccc4s3)ccc2F)CCSC(N)=N1` [Example 15, Benzo[b]thiophene-2-carboxylic acid [3-((S)-2-amino-4-ethyl-5,6-dihydro-4H-[1,3]thiazin-4-yl)-4-fluoro-phenyl]-amide] the figure was 916 nM; with `CC[C@@]1(c2cc(NC(=O)c3ccc(C)s3)ccc2F)CCSC(N)=N1` [Example 16, 5-Methyl-thiophene-2-carboxylic acid [3-((S)-2-amino-4-ethyl-5,6-dihydro-4H-[1,3]thiazin-4-yl)-4-fluoro-phenyl]-amide], 667 nM.
With `CC[C@@]1(c2cc(NC(=O)c3ccn(C)n3)ccc2F)CCSC(N)=N1` [Example 17, 1-Methyl-1H-pyrazole-3-carboxylic acid [3-((S)-2-amino-4-ethyl-5,6-dihydro-4H-[1,3]thiazin-4-yl)-4-fluoro-phenyl]-amide] the figure was 2140 nM.
In the case of `CC[C@@]1(c2cc(NC(=O)c3coc(C)n3)ccc2F)CCSC(N)=N1` [Example 18, 2-Methyl-oxazole-4-carboxylic acid [3-((S)-2-amino-4-ethyl-5,6-dihydro-4H-[1,3]thiazin-4-yl)-4-fluoro-phenyl]-amide], the IC50 is 475 nM.
With `CC[C@@]1(c2cc(NC(=O)c3csc(C)n3)ccc2F)CCSC(N)=N1` [Example 19, 2-Methyl-thiazole-4-carboxylic acid [3-((S)-2-amino-4-ethyl-5,6-dihydro-4H-[1,3]thiazin-4-yl)-4-fluoro-phenyl]-amide] the figure was 33600 nM.
